The results in this text go back to PubChem BioAssay (NCI).

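Results reflect a 48-hour exposure of cells in 96-well plates to compound at five concentrations. GI50 = concentration required for 50% inhibition of growth. The concentration for full growth arrest is given as TGI.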

Among the test systems are CCRF-CEM leukemia; DU-145 prostate; HCC-2998 colon; HCT-15 colon; KM12 colon; MDA-MB-231 breast; MOLT-4 leukemia; NCI-H226 lung; NCI-H460 lung; OVCAR-4 ovarian.
Holding throughout (assay): NCI tumour cell line growth inhibition, 48 h

For the molecule `C[C@H]1CNC(=O)c2cnn3ccc(nc23)N[C@H](C)c2cc(F)ccc2O1`, the GI50 is 0.444 µM in the assay with CCRF-CEM leukemia; 2.26 µM in the assay with DU-145 prostate; 3.26 µM in the assay with HCC-2998 colon; 2.05 µM in the assay on HCT-15 colon; 0.514 µM in the assay on MDA-MB-231 breast; 1.96 µM in the assay on MOLT-4 leukemia. Moreover, the GI50 with NCI-H226 lung is 1.03 µM; with NCI-H460 lung, 0.946 µM; with OVCAR-4 ovarian, 1.67 µM. In addition, the TGI was > 67.2 µM in the assay with CCRF-CEM leukemia; 12.8 µM in the assay on DU-145 prostate; 70.3 µM with HCC-2998 colon; 13.4 µM with HCT-15 colon; > 100 µM with KM12 colon; 13 µM with MDA-MB-231 breast. Also, the TGI with MOLT-4 leukemia worked out at 42.2 µM; with NCI-H226 lung, 3.83 µM; in the assay on NCI-H460 lung it was 25.1 µM; with OVCAR-4 ovarian it was 26.6 µM.
`NC(N)=NC(N)=NCCCc1ccco1`: the GI50 with CCRF-CEM leukemia is 21.8 µM; in the assay with DU-145 prostate, 140 µM; in the assay on HCC-2998 colon, > 500 µM; in the assay on HCT-15 colon, > 500 µM; in the assay with KM12 colon, 109 µM; with MDA-MB-231 breast, 68.8 µM. The GI50 was 28.3 µM in the assay with MOLT-4 leukemia, 98.3 µM with NCI-H226 lung, 143 µM with NCI-H460 lung and 96.8 µM with OVCAR-4 ovarian. The TGI was 121 µM in the assay with CCRF-CEM leukemia; > 500 µM in the assay on DU-145 prostate; > 500 µM with HCC-2998 colon; > 500 µM in the assay on HCT-15 colon; > 500 µM in the assay with KM12 colon; 198 µM in the assay with MDA-MB-231 breast. Moreover, the TGI is 176 µM in the assay on MOLT-4 leukemia, 351 µM with NCI-H226 lung, > 500 µM in the assay on NCI-H460 lung and 268 µM in the assay on OVCAR-4 ovarian.
Turning to `C[C@H]1COCCN1c1cc(C2(S(=O)(=O)C3CC3)CC2)nc(-c2ccc(NC(=S)NCCO)cc2)n1`, the GI50 is 0.0323 µM in the assay with CCRF-CEM leukemia; 0.0919 µM with DU-145 prostate; 0.035 µM in the assay on HCC-2998 colon; 0.17 µM in the assay on HCT-15 colon; 0.0494 µM with KM12 colon; 0.0327 µM in the assay on MDA-MB-231 breast. Moreover, the GI50 was 0.0467 µM in the assay on MOLT-4 leukemia, 0.0237 µM with NCI-H226 lung, 0.02 µM in the assay with NCI-H460 lung and 0.0159 µM in the assay with OVCAR-4 ovarian. The TGI with CCRF-CEM leukemia is > 100 µM; in the assay on DU-145 prostate, > 100 µM; with HCC-2998 colon, > 70.3 µM; in the assay with HCT-15 colon, > 100 µM; in the assay with KM12 colon it was > 100 µM; in the assay on MDA-MB-231 breast, 26.2 µM. The TGI is > 37.8 µM in the assay on MOLT-4 leukemia, 1.34 µM with NCI-H226 lung, > 100 µM in the assay on NCI-H460 lung and 0.233 µM in the assay on OVCAR-4 ovarian.
On to `C=C1C(=O)O[C@H]2[C@H]1CC/C(COC(=O)CCCc1c[nH]c3ccccc13)=C\CC[C@@]1(C)O[C@@H]21`, for which the GI50 was 0.715 µM with CCRF-CEM leukemia; 1.67 µM in the assay on DU-145 prostate; 1.79 µM with HCC-2998 colon; 1.61 µM with HCT-15 colon; 1.89 µM with KM12 colon; 1.78 µM in the assay with MDA-MB-231 breast. For the same molecule, the GI50 is 1.53 µM with MOLT-4 leukemia, 2.04 µM in the assay with NCI-H226 lung, 4.54 µM with NCI-H460 lung and 1.66 µM in the assay on OVCAR-4 ovarian. In addition, the TGI with CCRF-CEM leukemia is 7.5 µM; with DU-145 prostate, 3.18 µM; in the assay on HCC-2998 colon, 3.46 µM; in the assay with HCT-15 colon, 3.99 µM; in the assay with KM12 colon, 4.31 µM; with MDA-MB-231 breast, 3.7 µM. Besides, the TGI came to 4.94 µM in the assay on MOLT-4 leukemia, 4.38 µM in the assay on NCI-H226 lung, 19.2 µM with NCI-H460 lung and 3.28 µM with OVCAR-4 ovarian.
Regarding `O=C(c1ccccc1)c1c(C(F)(F)F)n([O-])c2cc(C(F)(F)F)ccc2[n+]1=O`, the GI50 in the assay on CCRF-CEM leukemia was 0.6 µM; in the assay on DU-145 prostate it was 1.22 µM; in the assay with HCC-2998 colon it was 1.88 µM; with HCT-15 colon, 1.6 µM; with KM12 colon, 1.6 µM; in the assay on MDA-MB-231 breast, 1.6 µM. In addition, the GI50 in the assay on MOLT-4 leukemia is 0.6 µM; with NCI-H226 lung, 1.83 µM; in the assay with NCI-H460 lung, 1.68 µM; in the assay with OVCAR-4 ovarian, 1.19 µM. Also, the TGI in the assay on CCRF-CEM leukemia turned out to be 2.44 µM; in the assay on DU-145 prostate, 2.47 µM; in the assay with HCC-2998 colon it was 3.44 µM; with HCT-15 colon, 3.24 µM; in the assay with KM12 colon, 3.17 µM; with MDA-MB-231 breast it was 3.11 µM. Moreover, the TGI with MOLT-4 leukemia is 2.29 µM; in the assay on NCI-H226 lung, 4.01 µM; in the assay with NCI-H460 lung, 3.42 µM; in the assay with OVCAR-4 ovarian it was 2.89 µM.
On to `CCCCCCCC/C=C1\CCC(CN2CCOCC2)C1=O` (centres undefined), for which the TGI in the assay on CCRF-CEM leukemia is 10.9 µM; in the assay on DU-145 prostate, 17.9 µM; with HCC-2998 colon it was 26.2 µM; in the assay with HCT-15 colon, 9.52 µM; in the assay with KM12 colon it was 12.4 µM; with MDA-MB-231 breast, 4.42 µM. For the same molecule, the TGI in the assay on MOLT-4 leukemia was 5.35 µM; in the assay with NCI-H226 lung, 33.3 µM; with NCI-H460 lung, 39.4 µM; in the assay with OVCAR-4 ovarian, 31 µM.
With `O=C(/C=C1\C(=O)N(Cc2ccccc2)c2ccccc21)c1ccc(OCCN2CCCCC2)cc1`, the GI50 with CCRF-CEM leukemia was 1.83 µM; in the assay on DU-145 prostate it was 2.26 µM; in the assay on HCC-2998 colon, 1.86 µM; in the assay on HCT-15 colon, 1.71 µM; in the assay on KM12 colon it was 5.9 µM; in the assay on MDA-MB-231 breast, 1.92 µM. The GI50 in the assay with MOLT-4 leukemia is 1.87 µM; in the assay with NCI-H226 lung it was 16.8 µM; with NCI-H460 lung, 3.57 µM; with OVCAR-4 ovarian, 2.99 µM. The TGI was determined as 5.9 µM in the assay with CCRF-CEM leukemia; 5.05 µM in the assay with DU-145 prostate; 3.47 µM in the assay with HCC-2998 colon; 3.31 µM in the assay with HCT-15 colon; 20.8 µM in the assay on KM12 colon; 3.88 µM in the assay on MDA-MB-231 breast. In addition, the TGI stood at 6.44 µM in the assay on MOLT-4 leukemia, 39.7 µM with NCI-H226 lung, 11.9 µM in the assay with NCI-H460 lung and 11.3 µM in the assay with OVCAR-4 ovarian.
Regarding `O=C(c1ccco1)c1c(C(F)(F)F)n([O-])c2cc(C(F)(F)F)ccc2[n+]1=O`, the GI50 is < 0.0434 µM with CCRF-CEM leukemia; 0.549 µM with DU-145 prostate; 0.371 µM in the assay with HCC-2998 colon; 0.404 µM with HCT-15 colon; 0.516 µM with KM12 colon; 1.08 µM in the assay on MDA-MB-231 breast. Further, the GI50 with MOLT-4 leukemia is 0.0773 µM; in the assay on NCI-H226 lung it was 1.77 µM; with NCI-H460 lung it was 0.537 µM; in the assay on OVCAR-4 ovarian, 1.35 µM. Further, the TGI was found to be 0.352 µM in the assay on CCRF-CEM leukemia; 1.21 µM in the assay with DU-145 prostate; 0.862 µM with HCC-2998 colon; 0.842 µM in the assay with HCT-15 colon; 1.19 µM in the assay with KM12 colon; 2.67 µM in the assay with MDA-MB-231 breast. Besides, the TGI worked out at 0.162 µM in the assay with MOLT-4 leukemia, 3.58 µM in the assay on NCI-H226 lung, 1.8 µM in the assay with NCI-H460 lung and 3.94 µM in the assay on OVCAR-4 ovarian.
